Reference: patent publication US4745185A, “D-arabinose-1,5-diphosphate salts and methods for the treatment of diabetes” (McNeilab, Inc., priority 1985, dated 1988)

What was measured:
[1] = target: T1, 6-phosphofructo-1-kinase (Rattus norvegicus, UniProt P30835); assay: Allosteric activation of rat liver 6-phosphofructo-1-kinase; assay type: biochemical; details: rat liver enzyme, in vitro; read-out: half-maximal concentration, allosteric activation
T1 construct: from tissue; host or cells: rat liver
T1 sequence (P30835 2-780 limits assumed): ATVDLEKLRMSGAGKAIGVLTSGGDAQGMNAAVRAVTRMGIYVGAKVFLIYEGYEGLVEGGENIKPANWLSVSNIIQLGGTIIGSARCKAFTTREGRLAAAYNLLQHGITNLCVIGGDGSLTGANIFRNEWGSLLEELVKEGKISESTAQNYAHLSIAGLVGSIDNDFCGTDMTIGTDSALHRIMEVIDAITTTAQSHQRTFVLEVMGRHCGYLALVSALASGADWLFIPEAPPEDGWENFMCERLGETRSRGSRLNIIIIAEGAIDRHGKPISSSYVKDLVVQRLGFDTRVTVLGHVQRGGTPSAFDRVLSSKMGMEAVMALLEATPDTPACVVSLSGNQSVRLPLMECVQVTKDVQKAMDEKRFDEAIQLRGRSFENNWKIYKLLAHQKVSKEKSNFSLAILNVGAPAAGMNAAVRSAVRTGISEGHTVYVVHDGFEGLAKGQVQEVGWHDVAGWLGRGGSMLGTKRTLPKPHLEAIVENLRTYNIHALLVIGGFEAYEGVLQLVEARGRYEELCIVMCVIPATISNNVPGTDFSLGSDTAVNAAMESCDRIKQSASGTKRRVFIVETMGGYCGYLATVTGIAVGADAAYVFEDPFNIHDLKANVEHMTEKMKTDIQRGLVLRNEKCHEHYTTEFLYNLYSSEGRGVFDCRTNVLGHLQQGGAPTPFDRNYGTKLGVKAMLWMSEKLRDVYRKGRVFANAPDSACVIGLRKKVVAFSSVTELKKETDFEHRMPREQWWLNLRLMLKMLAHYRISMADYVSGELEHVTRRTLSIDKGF
Description: (§1) The utility of compounds of the invention of formula (I) as hypoglycemic agents may be determined by measurement of Ki values as competitive inhibitors of rat liver fructose-1,6-biphosphatase and by measurement of half-maximal concentrations as allosteric activators of rat liver 6-phosphofructo-1-kinase, both of these tests being in vitro. An in vivo test for the activity of compounds of the invention is the Epinephrine-Induced Hyperglycemic Model (EIHM). In the EIHM, male Sprague-Dawley rats from Charles River Laboratories, average weight 200-280 grams, maintained on Lab-Blox® rat chow (Wayne) and provided water ad libitum were used throughout all studies; rats were fasted 18-24 hours prior to treatment with epinephrine (0.2 mg/kg i.p.) which was given intraperitoneally. Drug or vehicle were given 30 minutes prior to epinephrine. Blood samples were taken from the tail vein for measurement of glucose changes prior to and at 45 and 90 minutes after administration of epinephrine bitartrate (Sigma Co., St. Louis, MO). Blood glucose was determined using Autoflo Glucose (Bio-Dyanamics/bmc, Indianapolis, IN).
2. Allosteric activation of rat liver 6-phosphofructo-1-kinase
reported as half-maximal concentrations; methodology as described by S. J. Pilkis, et al. in The Journal of Biol. Chem., Vol. 256, pp. 3171 (1981).

[2] = system: fructose-1,6-biphosphatase; details: cited from earlier work
[3] = system: blood glucose; assay: Epinephrine-Induced Hyperglycemic Model (EIHM), in vivo; parameters: species or system male Sprague-Dawley rats; details: for maximum % lowering (blood glucose): 100 mg/kg i.p., given 30 minutes prior to epinephrine (0.2 mg/kg i.p.), fasted rats, glucose at 45 and 90 minutes
Description: as §1
**reported as maximum % lowering; methodology as described by G. F. Tutwiler in Biochemical Medicine, Vol. 22, pp. 204 (1979).

[4] = system: 6-phosphofructo-1-kinase; details: cited from earlier work
[5] = target: T2, fructose-1,6-biphosphatase (Rattus norvegicus, UniProt P19112); assay: Rat liver fructose-1,6-biphosphatase inhibition; assay type: biochemical; details: competitive inhibitors; rat liver enzyme, in vitro
T2 construct: from tissue; host or cells: rat liver
T2 sequence (P19112 2-363 limits assumed): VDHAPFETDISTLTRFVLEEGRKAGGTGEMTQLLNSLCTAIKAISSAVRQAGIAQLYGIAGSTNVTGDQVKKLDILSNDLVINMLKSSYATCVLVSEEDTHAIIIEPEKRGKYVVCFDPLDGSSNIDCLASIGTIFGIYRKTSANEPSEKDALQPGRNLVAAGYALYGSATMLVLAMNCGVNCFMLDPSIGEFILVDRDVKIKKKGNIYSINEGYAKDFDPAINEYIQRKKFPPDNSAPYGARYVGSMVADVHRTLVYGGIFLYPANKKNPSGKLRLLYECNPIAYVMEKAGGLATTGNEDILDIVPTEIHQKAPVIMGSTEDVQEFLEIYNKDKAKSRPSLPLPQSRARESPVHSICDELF
Description: as §1
1. Rat liver fructose-1,6-biphosphatase inhibition*:
*Methodology as described by S. J. Benkovic, et al. in Biochemistry, Vol. 10, No. 26, pp. 4881-4887 (1971).

O=P(O)(O)OC[C@H]1O[C@@](CO)(OP(=O)(O)O)[C@@H](O)[C@@H]1O [Compound (A), β-D-fructose-2,6-diphosphate, reference compound]
EC50 [1]: 50 nM
inhibition of fructose-1,6-biphosphatase (in words) [2]: deactivates gluconeogenesis by inhibiting fructose-1,6-biphosphatase
maximum % lowering (blood glucose) [3]: 0%
stimulation of 6-phosphofructo-1-kinase (in words) [4]: activates glycolysis by stimulating 6-phosphofructo-1-kinase
Ki [5]: 100 to 200 nM

O=P(O)(O)OC[C@H]1O[C@H](OP(=O)(O)O)[C@@H](O)[C@@H]1O [Example 2b, α-D-Arabinose-1,5-diphosphate]
EC50 [1]: 500 nM
Ki [5]: 30000 to 40000 nM

NC1CCCCC1 [cyclohexylamine]
part of the drug effect due to the cyclohexylamine base ([3]; cyclohexylamine base used to crystallize Example 1d, Example 1d at 100 mg/kg i.p.): approximately one-half of the drug effect

O=P(O)(O)OC[C@H]1O[C@@H](OP(=O)(O)O)[C@@H](O)[C@@H]1O [Example 1d, β-D-Arabinose-1,5-diphosphate]
EC50 [1]: 1000 nM
maximum % lowering (blood glucose) [3]: 85%
Ki [5]: 3400 nM
